Values quoted from earlier work as cited in patent US8273685B2, “Agrochemical composition” (Nippon Soda Co., Ltd., priority 2006, dated 2012).

Details: 1-octanol/water

Structure (SMILES) | Log P
Cc1c(F)c(F)c(COC(=O)[C@@H]2[C@H](/C=C(\Cl)C(F)(F)F)C2(C)C)c(F)c1F (racemic) [Tefluthrin, 2,3,5,6-tetrafluoro-4-methylbenzyl (1RS,3RS)-3-[(Z)-2-chloro-3,3,3-trifluoroprop-1-enyl]-2,2-dimethylcyclopropanecarboxylat] | 6.5
O=C(NC(=O)c1c(F)cccc1F)Nc1ccc(Cl)c(Oc2ncc(C(F)(F)F)cc2Cl)c1 [Fluazuron, 1-[4-chloro-3-(3-chloro-5-trifluoromethyl-2-pyridyloxy)phenyl]-3-(2,6-difluorobenzoyl)urea] | 5.1
CCN(Cc1c(F)cccc1Cl)c1c([N+](=O)[O-])cc(C(F)(F)F)cc1[N+](=O)[O-] [Flumetralin, N-(2-chloro-6-fluorobenzyl)-N-ethyl-alpha,alpha,alpha-trifluoro-2,6-dinitro-p-toluidine] | > 3
O=C(NC(=O)c1c(F)cccc1F)Nc1cc(Cl)c(OC(F)(F)C(F)F)c(Cl)c1 [Hexaflumuron, 1-[3,5-dichloro-4-(1,1,2,2-tetrafluoroethoxy)phenyl]-3-(2,6-difluorobenzoyl)urea] | 4.68
COC(=O)c1c(C(F)F)nc(C(F)(F)F)c(C2=NCCS2)c1CC(C)C [Thiazopyr, methyl 2-difluoromethyl-5-(4,5-dihydro-1,3-triazol-2-yl)-4-isobutyl-6-trifluoromethylnicotinate] | 3.89
